We go through three molecules from US11034681B2, “Crystal form of indole derivative and preparation method and use thereof” (CHIA TAI TIANQING PHARMACEUTICAL GROUP CO., LTD., priority 2018, dated 2021).

The structures appear in SMILES notation.

The target in data set [1] is T1, CRTH2 receptor (Homo sapiens, UniProt Q9Y5Y4).
T1 sequence (Q9Y5Y4 1-395): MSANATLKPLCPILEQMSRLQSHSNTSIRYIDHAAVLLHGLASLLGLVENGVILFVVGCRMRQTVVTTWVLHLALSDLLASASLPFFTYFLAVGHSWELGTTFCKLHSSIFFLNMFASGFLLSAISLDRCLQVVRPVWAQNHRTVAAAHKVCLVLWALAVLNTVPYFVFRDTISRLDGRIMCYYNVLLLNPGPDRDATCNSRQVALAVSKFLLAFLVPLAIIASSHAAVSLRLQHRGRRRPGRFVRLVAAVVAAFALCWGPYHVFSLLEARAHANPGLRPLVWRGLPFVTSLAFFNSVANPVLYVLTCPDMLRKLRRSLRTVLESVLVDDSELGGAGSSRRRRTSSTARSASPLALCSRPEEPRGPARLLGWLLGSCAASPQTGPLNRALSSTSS
In words: PathHunter CHO-K1 CRTH2 β-arrestin antagonist assay. The format is cell-based. The conditions noted are these: PathHunter CHO-K1 CRTH2 β-arrestin cells, PGD2 agonist at EC80. How it is done:
PathHunter® CHO-K1 CRTH2 β-arrestin cells (DiscoverX, catalogue number 93-0291C2) grew under standard conditions, and were inoculated into a white-wall 384-well microplate at a density of 5,000 cells/well. 20 μL of Cell Plating Reagent 1 was used in each well. Before the test, the cells were incubated overnight at 37° C./5% CO2. A test compound was serially diluted in DMSO with a dilution factor of 3-fold to give 8 concentrations of the test compound. Shortly before the test, the serially diluted test compound was further diluted with the test buffer to 5 times of the test concentration. 5 μL of the further diluted test compound was added to the cells, and the cells were incubated for 30 min at 37° C. The concentration of the solvent was 1%. 5 μL of 6×EC80 agonist (PGD2) buffer was added to the cells, and the cells were incubated for 90 min at 37° C. Measured signals were generated by one-time addition of 15 μL (50% v/v) of PathHunter detection mixture reagent and subsequent one-hour incubation. The microplate was read through the chemiluminescent signals of PerkinElmer Envision™ reader. Biological activity of the test compound was analyzed by CBIS data analysis suite (ChemInnovation, CA), and was denoted as IC50 value.

Data set [2] has as its system mice model of chronic/acute asthma induced by ovalbumin (OVA) and aluminum hydroxide (Al(OH)3). In words: Mice model of chronic/acute asthma induced by OVA and Al(OH)3. The format is in vivo.
Data set [3] can be described thus: Solid stability test of crystal form A (crystal form). The format is physicochemical. The source says:
(§1) Samples placed under high temperature and high humidity conditions were sealed with aluminum foil, and small holes were made in the foil to ensure that the samples can fully contact with ambient air. Samples placed under strong light conditions were sealed with screw caps.

Data set [4] can be described thus: Plasma pharmacokinetic assay in mice. The format is in vivo. To be noted: mouse, female C57 BL/6 mice. How it is done: Twelve female C57 BL/6 mice were used in plasma pharmacokinetic assay, randomly divided into two groups, with 6 animals in each group. Animals in the first group were administered intravenously 1 mg/kg of the test drug, and animals in the second group were administered intragastrically 5 mg/kg of the test drug. A formula comprising HPbCD and cosolvent (Solutol®) was used as formulation vehicle, and the obtained intravenous or intragastric formulations were all clear solutions. For animals in the intravenous group and the intragastric group, blood was collected from the saphenous vein at 0.0833, 0.25, 0.5, 1, 2, 4, 8, and 24 hours after administration, with 3 samples at each time point. Plasma samples collected from the intragastric administration group were frozen at −80° C. and thawed before LC-MS/MS sample analysis. The thawed plasma samples were subjected to protein precipitation by adding acetonitrile containing an internal standard in a certain ratio, and centrifuged to obtain a supernatant for LC-MS/MS injection. AP14000 or 5500 was used as the analytical instrument, ACQUITY UPLC BEH C18 (2.1×50 mm, 1.7 μm) was used as the chromatographic column, and the ionization of the test compound was performed by an ESI positive or negative ion source. There were 8 concentrations of the standard sample in each analysis batch, the ratio of the peak area of the test compound to the peak area of the internal standard (IS) was noted as Y, the concentration of the test compound in the plasma sample was noted as X, 1/x^2 was taken as the weighting coefficient to carry on the linear regression, and the regression equation of response and concentration was obtained. There were also corresponding quality control samples in each analysis batch. Phoenix 6.3 WinNonlin® was used for data processing to give corresponding PK parameters.

Data set [5] is described as follows: Stability test of crystal form A (impurity content). Format: physicochemical.
Source text: as §1

The target of data set [6] is T1, CRTH2 receptor. The conditions noted are these: background statement; cited from earlier work.

As a reminder, the IC50 is the concentration that gives 50% inhibition. Read a high IC50 as a need for much substance.

Turning to `Cc1c(Cc2ccc3c(c2)C(F)(F)CCS3(=O)=O)c2cc(F)ccc2n1CC(=O)O` [Compound 1], the IC50 on CRTH2 receptor [1] is below 0.1 µM.
In the case of `Cc1c(Cc2ccc3c(c2)C(F)(F)CCS3(=O)=O)c2cc(F)ccc2n1CC(=O)O` [Crystal Form A of Compound 1], the number of eosinophils entry in data set [2] is reported as “significantly reduce the number of eosinophils”. Besides, the “Crystal Form” value was “Crystal Form A” in data set [3] (40° C, Reletive Humidity 75%, Exposure, day 10); “Crystal Form A” in data set [3] (40° C, Reletive Humidity 75%, Exposure, day 30); “Crystal Form A” in data set [3] (40° C, Reletive Humidity 75%, Exposure, day 60); “Crystal Form A” in data set [3] (40° C, Reletive Humidity 75%, Exposure, day 90); “Crystal Form A” in data set [3] (60° C, Reletive Humidity 75%, Exposure, day 10); “Crystal Form A” in data set [3] (60° C, Reletive Humidity 75%, Exposure, day 30). For the same molecule, the “Crystal Form” value in data set [3] (60° C, Reletive Humidity 75%, Exposure, day 60) was “Crystal Form A”; in data set [3] (60° C, Reletive Humidity 75%, Exposure, day 90) it was “Crystal Form A”; in data set [3] (High Humidity (Room temperature/Reletive Humidity 92.5%, Exposure), day 5), “Crystal Form A”; in data set [3] (High Humidity (Room temperature/Reletive Humidity 92.5%, Exposure), day 10) it was “Crystal Form A”; in data set [3] (High Temperature (60° C., Exposure), day 5) it was “Crystal Form A”; in data set [3] (High Temperature (60° C., Exposure), day 10), “Crystal Form A”. Moreover, the “Crystal Form” value is reported as “Crystal Form A” in data set [3] (Strong Light (5000 lx, Sealed), day 5); “Crystal Form A” in data set [3] (Strong Light (5000 lx, Sealed), day 10); “Crystal Form A” in data set [3] (day 0). The clearance in data set [4] (intravenous 1 mg/kg, read-out: Clearance Rate of Intravenous Administration (Cl, mL/min/kg)) is 4.55 mL/min/kg. Also, in data set [4] (po, intragastric 5 mg/kg, read-out: Half-life of Intragastric Administration (T1/2, hr) (converted)), the half-life is 3.19 h. Also, the Cmax in data set [4] (po, intragastric 5 mg/kg, read-out: Maximum Blood Concentration of Intragastric Administration (Cmax)) turned out to be 6.77 µM. Further, the AUC in data set [4] (po, intragastric 5 mg/kg, read-out: Plasma Exposure of Intragastric Administration (AUC, nM*hr)) stood at 26000 nM·h. The “Impurity Content” value in data set [5] (0 Day (Table 5)) was 0.07%; in data set [5] (25° C/60% RH, 3 months), 0.09%; in data set [5] (25° C/60% RH, 6 months), 0.13%; in data set [5] (30° C/65% RH, 3 months), 0.09%; in data set [5] (30° C/65% RH, 6 months), 0.15%; in data set [5] (40° C/75% RH, 0 Day (Table 6)), 0.07%. Further, the “Impurity Content” value amounted to 0.17% in data set [5] (40° C/75% RH, 1 month) and 0.13% in data set [5] (40° C/75% RH, 2 months).
Turning to `O=C(O)CCn1c2c(c3ccccc31)C[C@H](NS(=O)(=O)c1ccc(F)cc1)CC2` [Ramatroban], at CRTH2 receptor [6], the CRTH2 receptor antagonism result is “weak CRTH2 receptor antagonist”.
